{
  "source": "paper PMC10176470",
  "about": "“Engaging a Non-catalytic Cysteine Residue Drives Potent and Selective Inhibition of Caspase-6” (Journal of the American Chemical Society, 2023)",
  "assay_type_in_all_cases": "cell-based",
  "key": {"[1]": {"biological_target": "proteins of HEK293T cells transiently overexpressing caspase-6 (Homo sapiens, UniProt P51991)", "sequence (P51991 whole entry)": "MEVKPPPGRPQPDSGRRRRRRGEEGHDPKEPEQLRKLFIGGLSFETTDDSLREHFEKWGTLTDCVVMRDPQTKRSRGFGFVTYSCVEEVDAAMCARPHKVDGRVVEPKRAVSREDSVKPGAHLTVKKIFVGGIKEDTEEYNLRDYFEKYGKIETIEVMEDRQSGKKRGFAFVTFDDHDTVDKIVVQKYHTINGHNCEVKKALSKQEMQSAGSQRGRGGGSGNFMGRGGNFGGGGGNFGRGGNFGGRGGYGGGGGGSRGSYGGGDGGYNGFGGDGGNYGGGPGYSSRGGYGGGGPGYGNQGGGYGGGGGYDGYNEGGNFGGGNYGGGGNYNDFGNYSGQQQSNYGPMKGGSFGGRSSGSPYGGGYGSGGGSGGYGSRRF", "settings": "exp_ref Probe; protein HNRNPA3 (P51991); analysis C6"}, "[2]": {"biological_target": "proteins of HEK293T cells transiently overexpressing caspase-6 (Homo sapiens, UniProt P23396)", "settings": "exp_ref Probe; protein RPS3 (P23396); analysis C6"}, "[3]": {"biological_target": "proteins of HEK293T cells transiently overexpressing caspase-6 (Homo sapiens, UniProt P08195)", "sequence (P08195 102-630)": "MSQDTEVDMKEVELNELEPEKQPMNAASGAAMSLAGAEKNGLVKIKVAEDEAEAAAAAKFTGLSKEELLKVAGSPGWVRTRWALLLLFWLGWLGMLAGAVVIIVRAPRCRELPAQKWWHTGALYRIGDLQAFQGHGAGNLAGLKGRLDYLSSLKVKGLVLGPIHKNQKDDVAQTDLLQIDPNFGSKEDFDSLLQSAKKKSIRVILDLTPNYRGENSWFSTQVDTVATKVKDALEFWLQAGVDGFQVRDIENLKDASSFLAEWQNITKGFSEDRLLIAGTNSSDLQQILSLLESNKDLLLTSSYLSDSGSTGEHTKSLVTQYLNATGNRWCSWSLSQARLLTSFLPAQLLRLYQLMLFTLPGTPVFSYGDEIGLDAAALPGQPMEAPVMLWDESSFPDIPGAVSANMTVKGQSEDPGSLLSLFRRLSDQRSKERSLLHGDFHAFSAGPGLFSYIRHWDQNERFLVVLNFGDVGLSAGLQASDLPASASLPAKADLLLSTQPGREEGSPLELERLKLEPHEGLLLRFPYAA", "settings": "protein SLC3A2 (P08195); exp_ref Probe; analysis C6"}, "[4]": {"biological_target": "proteins of HEK293T cells transiently overexpressing caspase-6 (Homo sapiens, UniProt P04181)", "sequence (P04181 26-439)": "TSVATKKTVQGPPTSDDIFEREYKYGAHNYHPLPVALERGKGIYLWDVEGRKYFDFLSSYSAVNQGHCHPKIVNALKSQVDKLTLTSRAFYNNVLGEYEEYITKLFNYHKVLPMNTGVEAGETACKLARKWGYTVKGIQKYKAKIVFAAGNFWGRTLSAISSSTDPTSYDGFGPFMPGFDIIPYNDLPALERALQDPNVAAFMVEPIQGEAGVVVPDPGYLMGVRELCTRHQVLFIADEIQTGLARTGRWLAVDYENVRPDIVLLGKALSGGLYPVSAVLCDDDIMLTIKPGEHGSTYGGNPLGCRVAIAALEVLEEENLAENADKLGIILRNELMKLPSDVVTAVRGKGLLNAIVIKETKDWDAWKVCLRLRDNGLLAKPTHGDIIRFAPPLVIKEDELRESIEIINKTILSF", "settings": "exp_ref Probe; protein OAT (P04181); analysis C6"}, "[5]": {"biological_target": "proteins of HEK293T cells transiently overexpressing caspase-6 (Homo sapiens, UniProt P61221)", "settings": "exp_ref Probe; protein ABCE1 (P61221); analysis C6"}, "[6]": {"biological_target": "proteins of HEK293T cells transiently overexpressing caspase-6 (Homo sapiens, UniProt Q14152)", "sequence (Q14152 whole entry)": "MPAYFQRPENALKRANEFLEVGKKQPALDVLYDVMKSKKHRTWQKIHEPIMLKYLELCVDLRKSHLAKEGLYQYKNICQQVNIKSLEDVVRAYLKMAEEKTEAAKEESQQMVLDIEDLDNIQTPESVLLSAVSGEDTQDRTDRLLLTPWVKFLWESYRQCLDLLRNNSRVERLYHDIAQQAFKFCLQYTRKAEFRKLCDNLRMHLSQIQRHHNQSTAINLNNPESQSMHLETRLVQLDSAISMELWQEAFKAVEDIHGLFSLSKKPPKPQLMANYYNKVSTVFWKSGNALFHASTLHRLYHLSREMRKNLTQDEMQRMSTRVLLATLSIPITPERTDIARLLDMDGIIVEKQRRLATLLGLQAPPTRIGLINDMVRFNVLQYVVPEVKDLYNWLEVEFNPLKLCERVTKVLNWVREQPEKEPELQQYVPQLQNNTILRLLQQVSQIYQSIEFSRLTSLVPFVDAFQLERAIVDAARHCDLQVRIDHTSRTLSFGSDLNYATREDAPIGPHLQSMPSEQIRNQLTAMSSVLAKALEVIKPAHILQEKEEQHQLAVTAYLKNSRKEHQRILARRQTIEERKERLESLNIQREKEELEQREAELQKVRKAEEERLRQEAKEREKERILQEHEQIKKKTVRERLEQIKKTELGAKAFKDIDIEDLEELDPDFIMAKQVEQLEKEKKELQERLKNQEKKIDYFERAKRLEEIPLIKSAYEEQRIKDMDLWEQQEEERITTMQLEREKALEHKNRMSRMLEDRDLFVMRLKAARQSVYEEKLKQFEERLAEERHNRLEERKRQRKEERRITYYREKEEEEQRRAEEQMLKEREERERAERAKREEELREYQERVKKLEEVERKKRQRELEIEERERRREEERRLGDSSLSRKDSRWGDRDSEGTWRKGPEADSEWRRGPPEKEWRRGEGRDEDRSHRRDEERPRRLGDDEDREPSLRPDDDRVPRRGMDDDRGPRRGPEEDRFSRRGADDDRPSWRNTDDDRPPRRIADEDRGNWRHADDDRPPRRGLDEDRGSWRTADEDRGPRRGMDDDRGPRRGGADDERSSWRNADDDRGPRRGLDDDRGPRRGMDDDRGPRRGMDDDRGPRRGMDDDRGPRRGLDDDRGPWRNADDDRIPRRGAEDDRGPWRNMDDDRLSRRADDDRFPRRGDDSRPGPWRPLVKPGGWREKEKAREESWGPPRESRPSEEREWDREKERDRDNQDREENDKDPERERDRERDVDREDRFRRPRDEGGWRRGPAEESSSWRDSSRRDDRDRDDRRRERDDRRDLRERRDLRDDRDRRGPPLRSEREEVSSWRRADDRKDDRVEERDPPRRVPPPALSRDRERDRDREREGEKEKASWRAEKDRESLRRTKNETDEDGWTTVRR", "settings": "exp_ref Probe; protein EIF3A (Q14152); analysis C6"}, "[7]": {"biological_target": "T1, proteins of HEK293T cells transiently overexpressing caspase-6 (Homo sapiens, UniProt Q14697)", "T1 sequence (Q14697 29-944)": "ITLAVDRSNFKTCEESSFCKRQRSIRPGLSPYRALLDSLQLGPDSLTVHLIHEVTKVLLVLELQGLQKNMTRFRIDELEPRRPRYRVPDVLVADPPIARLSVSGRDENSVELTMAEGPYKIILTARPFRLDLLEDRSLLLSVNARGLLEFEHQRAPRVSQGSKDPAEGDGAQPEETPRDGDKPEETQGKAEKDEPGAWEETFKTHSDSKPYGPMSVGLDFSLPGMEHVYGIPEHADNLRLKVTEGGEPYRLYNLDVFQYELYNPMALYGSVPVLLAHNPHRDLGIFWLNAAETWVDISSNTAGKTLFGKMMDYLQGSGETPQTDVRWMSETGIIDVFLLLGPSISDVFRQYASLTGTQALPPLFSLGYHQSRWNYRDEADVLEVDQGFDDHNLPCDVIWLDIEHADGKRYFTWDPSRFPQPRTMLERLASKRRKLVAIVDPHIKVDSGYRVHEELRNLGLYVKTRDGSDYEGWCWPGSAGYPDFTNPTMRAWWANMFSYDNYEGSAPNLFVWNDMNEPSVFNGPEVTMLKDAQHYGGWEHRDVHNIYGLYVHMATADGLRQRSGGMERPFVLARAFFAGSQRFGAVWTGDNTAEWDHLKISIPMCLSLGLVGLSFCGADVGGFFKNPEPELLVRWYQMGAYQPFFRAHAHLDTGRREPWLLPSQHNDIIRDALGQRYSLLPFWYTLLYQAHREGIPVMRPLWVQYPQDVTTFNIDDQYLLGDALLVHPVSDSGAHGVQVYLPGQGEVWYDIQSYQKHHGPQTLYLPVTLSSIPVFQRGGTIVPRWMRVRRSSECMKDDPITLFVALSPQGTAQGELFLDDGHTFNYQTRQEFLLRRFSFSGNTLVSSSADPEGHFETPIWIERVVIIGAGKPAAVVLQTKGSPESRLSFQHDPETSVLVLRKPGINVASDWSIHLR", "settings": "protein GANAB (Q14697)"}, "[8]": {"biological_target": "proteins of HEK293T cells transiently overexpressing caspase-6 (Homo sapiens, UniProt Q6P2Q9)", "settings": "exp_ref Probe; protein PRPF8 (Q6P2Q9); analysis C6"}, "[9]": {"biological_target": "proteins of HEK293T cells transiently overexpressing caspase-6 (Homo sapiens, UniProt P62424)", "settings": "exp_ref Probe; protein RPL7A (P62424); analysis C6"}, "[10]": {"biological_target": "proteins of HEK293T cells transiently overexpressing caspase-6 (Homo sapiens, UniProt Q86YZ3)", "settings": "Probe; protein HRNR Q86YZ3"}, "[11]": {"biological_target": "proteins of HEK293T cells transiently overexpressing caspase-6 (Homo sapiens, UniProt P07237)", "sequence (P07237 18-508)": "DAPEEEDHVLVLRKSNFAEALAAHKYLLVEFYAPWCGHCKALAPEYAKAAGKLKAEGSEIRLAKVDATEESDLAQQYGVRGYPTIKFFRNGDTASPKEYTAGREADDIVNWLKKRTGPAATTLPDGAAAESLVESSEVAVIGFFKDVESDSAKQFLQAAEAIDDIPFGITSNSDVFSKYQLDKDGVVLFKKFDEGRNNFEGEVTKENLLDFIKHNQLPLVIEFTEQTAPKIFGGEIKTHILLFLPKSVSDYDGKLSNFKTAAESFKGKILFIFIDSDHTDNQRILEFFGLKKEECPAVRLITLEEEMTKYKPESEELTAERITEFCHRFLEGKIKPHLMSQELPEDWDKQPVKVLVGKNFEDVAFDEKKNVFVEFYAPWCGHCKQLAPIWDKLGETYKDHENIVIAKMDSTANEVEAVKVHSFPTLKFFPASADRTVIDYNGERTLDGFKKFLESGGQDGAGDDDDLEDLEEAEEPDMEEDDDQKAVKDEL", "settings": "protein P4HB (P07237)"}, "[12]": {"biological_target": "proteins of HEK293T cells transiently overexpressing caspase-6 (Homo sapiens, UniProt P61247)", "settings": "protein RPS3A (P61247)"}, "[13]": {"biological_target": "proteins of HEK293T cells transiently overexpressing caspase-6 (Homo sapiens, UniProt P08670)", "sequence (P08670 whole entry)": "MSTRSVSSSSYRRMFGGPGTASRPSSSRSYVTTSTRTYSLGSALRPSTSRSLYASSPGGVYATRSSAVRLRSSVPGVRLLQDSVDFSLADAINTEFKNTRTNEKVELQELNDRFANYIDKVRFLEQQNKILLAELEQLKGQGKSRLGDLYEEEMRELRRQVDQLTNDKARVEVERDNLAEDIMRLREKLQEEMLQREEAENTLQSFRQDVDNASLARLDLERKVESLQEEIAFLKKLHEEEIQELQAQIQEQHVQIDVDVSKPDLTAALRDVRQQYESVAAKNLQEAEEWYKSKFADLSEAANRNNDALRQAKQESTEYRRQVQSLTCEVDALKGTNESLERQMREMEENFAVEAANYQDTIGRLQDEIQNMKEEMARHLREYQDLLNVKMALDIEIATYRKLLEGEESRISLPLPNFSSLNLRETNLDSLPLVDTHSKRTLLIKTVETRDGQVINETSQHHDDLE"}, "[14]": {"biological_target": "proteins of HEK293T cells transiently overexpressing caspase-6 (Homo sapiens, UniProt Q9Y490)", "settings": "exp_ref Probe; protein TLN1 (Q9Y490); analysis C6"}, "[15]": {"biological_target": "T2, proteins of HEK293T cells transiently overexpressing caspase-6 (Homo sapiens, UniProt Q14103)", "T2 sequence (Q14103 1-355)": "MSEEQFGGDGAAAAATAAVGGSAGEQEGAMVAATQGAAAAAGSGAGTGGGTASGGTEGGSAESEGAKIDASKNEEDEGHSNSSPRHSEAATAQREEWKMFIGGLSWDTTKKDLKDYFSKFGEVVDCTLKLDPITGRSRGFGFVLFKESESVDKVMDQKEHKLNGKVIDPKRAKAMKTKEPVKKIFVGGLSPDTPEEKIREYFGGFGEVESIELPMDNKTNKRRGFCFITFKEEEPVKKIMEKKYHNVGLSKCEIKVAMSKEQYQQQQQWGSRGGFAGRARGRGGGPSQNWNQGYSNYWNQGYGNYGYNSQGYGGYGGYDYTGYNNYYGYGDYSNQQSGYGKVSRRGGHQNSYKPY", "settings": "protein HNRNPD (Q14103)"}},
  "data": [
    {"smiles": "C#CCOc1ccc([C@@H]2C[C@@H](C(=O)Nc3ccc(OC(F)(F)F)cc3)CN(S(=O)(=O)C=C)C2)cc1", "note": "(relative stereo) [13-t]", "values": [
      {"measurement": "enrich.exp.med", "setting": "[1]", "value": 0.2112},
      {"measurement": "enrich.exp.med", "setting": "[2]", "value": 0.6101},
      {"measurement": "enrich.exp.med", "setting": "[3]", "value": 1.379},
      {"measurement": "enrich.exp.med", "setting": "[4]", "value": 1.012},
      {"measurement": "enrich.exp.med", "setting": "[5]", "value": -0.002133},
      {"measurement": "enrich.exp.med", "setting": "[6]", "value": 0.8938},
      {"measurement": "enrich.exp.med", "setting": "[7]; exp_ref Probe, analysis C6", "value": -0.2903},
      {"measurement": "enrich.exp.med.lin", "setting": "[7]", "value": 0.8177},
      {"measurement": "enrich.exp.med.log2", "setting": "[7]", "value": -0.2903},
      {"measurement": "enrich.exp.med", "setting": "[8]", "value": 0.2125},
      {"measurement": "enrich.exp.med", "setting": "[9]", "value": 0.8961},
      {"measurement": "enrich.exp.med", "setting": "[10]", "value": -8.887},
      {"measurement": "enrich.exp.med.lin", "setting": "[11]", "value": 4.024},
      {"measurement": "enrich.exp.med.log2", "setting": "[11]", "value": 2.009},
      {"measurement": "enrich.exp.med", "setting": "[11]; exp_ref Probe, analysis C6", "value": 2.009},
      {"measurement": "enrich.exp.med", "setting": "[12]; exp_ref Probe, analysis C6", "value": 1.085},
      {"measurement": "enrich.exp.med.lin", "setting": "[12]", "value": 2.121},
      {"measurement": "enrich.exp.med.log2", "setting": "[12]", "value": 1.085},
      {"measurement": "enrich.exp.med", "setting": "[13]; Probe, protein VIM P08670", "value": -1.006},
      {"measurement": "enrich.exp.med.lin", "setting": "[13]; protein VIM (P08670)", "value": 0.4978},
      {"measurement": "enrich.exp.med.log2", "setting": "[13]; protein VIM (P08670)", "value": -1.006},
      {"measurement": "enrich.exp.med", "setting": "[14]", "value": 0.6042},
      {"measurement": "enrich.exp.med", "setting": "[15]; exp_ref Probe, analysis C6", "value": -0.3533},
      {"measurement": "enrich.exp.med.lin", "setting": "[15]", "value": 0.7828},
      {"measurement": "enrich.exp.med.log2", "setting": "[15]", "value": -0.3533}
    ]}
  ]
}
